Broadly, the IC50 is the concentration needed to halve the response being measured.

This test has as its target Mitogen-activated protein kinase kinase kinase kinase 1 (Homo sapiens, UniProt Q92918). The experiment in a line: Inhibition of recombinant human HPK1 expressed in baculovirus infected insect cells using SRKS1 peptide as substrate incubated for 15 mins followed by substrate addition and measured after 3 hrs by TR-FRET assay. (TR-FRET usually uses a lanthanide donor and a delayed reading to cut background.)

Chain of Mitogen-activated protein kinase kinase kinase kinase 1 (Q92918 whole entry): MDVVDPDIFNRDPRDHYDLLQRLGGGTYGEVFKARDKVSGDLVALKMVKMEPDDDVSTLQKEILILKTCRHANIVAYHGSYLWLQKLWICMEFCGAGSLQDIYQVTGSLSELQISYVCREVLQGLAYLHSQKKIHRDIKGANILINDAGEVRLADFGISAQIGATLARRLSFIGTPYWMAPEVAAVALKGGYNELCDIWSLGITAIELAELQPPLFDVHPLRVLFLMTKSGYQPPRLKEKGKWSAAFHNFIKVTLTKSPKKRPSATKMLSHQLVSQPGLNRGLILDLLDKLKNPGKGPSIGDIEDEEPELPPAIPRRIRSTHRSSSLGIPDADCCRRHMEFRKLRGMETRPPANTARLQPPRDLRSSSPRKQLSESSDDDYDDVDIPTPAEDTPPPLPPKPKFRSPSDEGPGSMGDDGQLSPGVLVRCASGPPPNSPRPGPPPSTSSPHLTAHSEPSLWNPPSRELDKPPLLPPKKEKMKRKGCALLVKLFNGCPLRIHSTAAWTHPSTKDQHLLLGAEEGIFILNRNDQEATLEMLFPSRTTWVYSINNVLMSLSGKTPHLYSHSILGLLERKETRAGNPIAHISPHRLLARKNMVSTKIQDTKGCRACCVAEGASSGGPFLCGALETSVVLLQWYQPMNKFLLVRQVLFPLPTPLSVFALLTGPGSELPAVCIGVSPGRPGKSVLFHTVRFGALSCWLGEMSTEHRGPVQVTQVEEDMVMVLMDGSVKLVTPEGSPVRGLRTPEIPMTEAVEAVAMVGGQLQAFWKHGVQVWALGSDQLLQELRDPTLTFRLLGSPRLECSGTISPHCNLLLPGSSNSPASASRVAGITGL

`Cc1c(-c2cc(F)c3c(c2)/C(=C/c2ccc(C4CC4)[nH]2)C(=O)N3)cnc2c1NCCO2`: the 50% inhibitory concentration (IC50) amounted to 0.05 nM.

These data come from ChEMBL document CHEMBL4732267, “Novel Substituted Exomethylene-oxindoles as HPK1 Inhibitors” (ACS Med Chem Lett, 2021).
